The text below walks through data of ChEMBL document CHEMBL3232962, “Identification and optimization of novel Hsp90 inhibitors with tetrahydropyrido[4,3-d]pyrimidines core through shape-based screening” (Eur J Med Chem, 2014).

In test [1] the target is T1, Heat shock protein HSP 90-beta (Homo sapiens, UniProt P08238). Kind of test: Inhibition of full-length HSP90 (unknown origin) expressed in Escherichia coli assessed as inhibition of ATPase activity after 3 hrs by spectrophotometric analysis.
In test [2] the target is T1, Heat shock protein HSP 90-beta. Kind of test: Displacement of FITC-geldanamycin from HSP90 (unknown origin) after 30 mins by fluorescence polarization assay. A general note: Fluorescence polarisation rises when a labelled molecule tumbles more slowly, as on binding a larger partner.
The next test has as its system HCT-116. Kind of test: cells. The following applies: Homo sapiens, HCT-116, 48 h.
Another test is described as follows: cells. The following applies: Homo sapiens, SK-BR-3, 48 h.
Test [3] is described as follows: Antiproliferative activity against human A231 cells after 48 hrs by MTT assay. It is filed as functional, cell-based. The following applies: A231, 48 h.
For the next test, the system named is MCF7. In words: cells. The following applies: Homo sapiens, MCF7, 48 h.

T1 sequence (P08238 whole entry): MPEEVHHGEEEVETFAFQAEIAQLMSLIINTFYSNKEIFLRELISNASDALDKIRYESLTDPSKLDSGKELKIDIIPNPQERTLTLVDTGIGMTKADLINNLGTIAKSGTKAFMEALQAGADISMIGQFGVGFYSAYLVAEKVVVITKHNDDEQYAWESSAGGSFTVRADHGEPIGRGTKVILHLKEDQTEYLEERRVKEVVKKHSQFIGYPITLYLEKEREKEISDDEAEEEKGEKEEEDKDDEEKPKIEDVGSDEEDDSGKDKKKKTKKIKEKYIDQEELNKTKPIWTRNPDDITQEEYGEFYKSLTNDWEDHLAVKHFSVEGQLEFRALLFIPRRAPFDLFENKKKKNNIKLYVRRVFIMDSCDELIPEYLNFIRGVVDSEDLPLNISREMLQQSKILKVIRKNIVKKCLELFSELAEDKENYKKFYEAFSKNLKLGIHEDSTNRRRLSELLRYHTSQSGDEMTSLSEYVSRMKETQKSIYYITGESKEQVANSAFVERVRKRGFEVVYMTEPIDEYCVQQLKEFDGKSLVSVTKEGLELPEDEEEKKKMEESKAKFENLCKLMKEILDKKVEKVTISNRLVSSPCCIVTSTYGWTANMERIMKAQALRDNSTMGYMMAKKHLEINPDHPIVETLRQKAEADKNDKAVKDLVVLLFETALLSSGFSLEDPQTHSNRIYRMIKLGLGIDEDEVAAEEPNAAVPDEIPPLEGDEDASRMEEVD

`CN1CCN(c2ncc3c(n2)CCN(Cc2ccc(Br)s2)C3)CC1`: the IC50 (in general, the concentration that gives 50% inhibition) in test [1] stood at 63.2 µM.
Same read-out and setting: the value for `CCN1CCN(c2ncc3c(n2)CCN(Cc2ccc(Br)s2)C3)CC1` was 74.7 µM.
Still for that read-out and setting: the value for `COc1cc(OC)c(OC)cc1CN1CCc2nc(N3CCOCC3)ncc2C1` was 50.9 µM.
On the same count and under the same terms, the value for `c1cc2c(cc1CN1CCc3nc(Nc4ccc5c(c4)OCCO5)ncc3C1)OCCO2` was over 100 µM.
On to `Fc1ccc(CN2CCc3nc(N4CCN(c5ncccn5)CC4)ncc3C2)cc1`, for which the results for the IC50 in test [1] and in test [2] were 40.2 µM and over 100 µM, respectively.
On the same counts, the results for `Clc1ccc(CN2CCc3nc(N4CCN(c5ncccn5)CC4)ncc3C2)cc1` are 47.9 µM and over 100 µM.
On to `COc1cc(CN2CCc3nc(N4CCOCC4)ncc3C2)cc(OC)c1OC`, for which the IC50 in test [1] worked out at 55.1 µM.
For `CN(C)c1ccc(CN2CCc3nc(N4CCN(c5ncccn5)CC4)ncc3C2)cc1`, the figures for the half-maximal inhibitory concentration (IC50) in test [1] and in test [2] were 46.1 µM and over 100 µM, respectively.
In the case of `CCCN1CCN(c2ncc3c(n2)CCN(Cc2cc(Br)cs2)C3)CC1`, the IC50 in test [1] worked out at 59.3 µM.
For `COc1ccc(OC)c(CN2CCc3nc(N4CCN(c5ncccn5)CC4)ncc3C2)c1`, the half-maximal inhibitory concentration (IC50) was found to be 35.2 µM in test [1]; 43.2 µM in the test with HCT-116; 45.4 µM in test [2]; 10.7 µM in the test “cells”; 27.5 µM in test [3]; 53.2 µM with MCF7.
`CC1CCN(c2ncc3c(n2)CCN(Cc2ccc(Br)s2)C3)CC1`: the IC50 in test [1] came out at 88 µM.
Take `COc1ccc(OC)c(C(=O)N2CCc3nc(N4CCN(c5ncccn5)CC4)ncc3C2)c1`: the IC50 in test [1] was found to be 16.4 µM; in the test with HCT-116, 34.6 µM; in test [2] it was 40.4 µM; in “cells”, 23.5 µM; in test [3], 51.3 µM; in the test with MCF7, 43.3 µM.
Turning to `O=C(c1ccc(F)cc1)N1CCc2nc(N3CCN(c4ncccn4)CC3)ncc2C1`, the IC50 was 27.2 µM in test [1]; 67.9 µM in the test with HCT-116; over 100 µM in test [2]; 24.5 µM in the test “cells”; 54.4 µM in test [3]; 46.2 µM in the test with MCF7.
In the case of `O=C(c1ccc(Cl)cc1)N1CCc2nc(N3CCN(c4ncccn4)CC3)ncc2C1`, the IC50 was 24.5 µM in test [1]; 21.7 µM in the test on HCT-116; over 100 µM in test [2]; 11.2 µM in “cells”; 24.6 µM in test [3]; 42.2 µM with MCF7.
With `COc1ccc(C(=O)N2CCc3nc(N4CCN(c5ncccn5)CC4)ncc3C2)c(OC)c1`, the IC50 in test [1] was determined as 7.88 µM; in the test on HCT-116, 11.5 µM; in test [2], 30.5 µM; in the test “cells”, 16 µM; in test [3], 37.6 µM; in the test with MCF7, 20.2 µM.
For the molecule `O=C(c1ccc(O)cc1O)N1CCc2nc(N3CCN(c4ncccn4)CC3)ncc2C1`, the IC50 in test [1] worked out at 3.23 µM; in the test on HCT-116 it was 23.1 µM; in test [2], 10.2 µM; in the test “cells”, 12.2 µM; in test [3], 21.3 µM; in the test on MCF7, 17.5 µM.
Take `O=C(c1cc(Cl)c(O)cc1O)N1CCc2nc(N3CCN(c4ncccn4)CC3)ncc2C1`: the IC50 was determined as 0.93 µM in test [1]; 2.74 µM in the test on HCT-116; 1.67 µM in test [2]; 5.17 µM in “cells”; 6.65 µM in test [3]; 10.2 µM with MCF7.
Consider `Nc1ncc2c(n1)CCN(C(=O)c1cc(Cl)c(O)cc1O)C2`, for which the IC50 in test [1] was determined as 0.51 µM; in the test on HCT-116, 1.21 µM; in test [2], 0.31 µM; in “cells”, 2.3 µM; in test [3], 5.22 µM; in the test on MCF7, 4.41 µM.
Consider `Cc1ncc2c(n1)CCN(C(=O)c1cc(Cl)c(O)cc1O)C2`, for which the IC50 amounted to 0.42 µM in test [1]; 2.82 µM in the test with HCT-116; 0.1 µM in test [2]; 4.32 µM in the test “cells”; 3.76 µM in test [3]; 1.91 µM in the test with MCF7.
For the molecule `CO[C@H]1/C=C\C=C(/C)C(=O)NC2=CC(=O)C(NCCN(C)C)=C(C[C@@H](C)C[C@H](OC)[C@H](O)[C@@H](C)/C=C(\C)[C@@H]1OC(N)=O)C2=O` [ALVESPIMYCIN], the IC50 amounted to 1.21 µM with HCT-116, 3.11 µM in “cells”, 0.17 µM in test [3] and 0.8 µM with MCF7.
As to `CC(C)c1cc(C(=O)N2Cc3ccc(CN4CCN(C)CC4)cc3C2)c(O)cc1O` [ONALESPIB], the IC50 in test [1] was 0.35 µM; in the test on HCT-116, 0.08 µM; in test [2], 0.03 µM; in the test “cells”, 0.14 µM; in test [3] it was 1.01 µM; with MCF7 it was 0.28 µM.
